Data from patent US8778890B2, “Leptin antagonist and methods of use” (Temple University—of the Commonwealth System of Higher …, priority 2009, dated 2014).
Read-outs that look alike come from different tables or passages of the source. Where a SMILES comes first, the peptide text is derived from it. Where no end group is shown, it is not given here. [ ]: non-standard residue; d: D form. NMeR = CN[C@@H](CCCNC(=N)N)C(=O)O; aThr = C[C@H](O)[C@H](N)C(=O)O; Nva = CCC[C@H](N)C(=O)O; Ahx = NCCCCCC(=O)O; βAla = NCCC(=O)O

Assays:
[1] = serum stability; type: in vitro ADME, mouse
Description: The stabilities of the peptides of amino acid sequence SEQ ID NO:4 and SEQ ID NO:49 were determined in 25% serum, and 100% serum, in terms of their half-lives. For serum stability studies, […] of an aqueous peptide stock solution, containing about 0.8 mg/mL peptide, were added to 2.5 mL of 25% or 100% aqueous pooled mouse serum. The peptide-serum mixture was thermostated at 37° C. After 0 min, 45 min, 60 min, 90 min, 2 h, 4 h, and 8 h, three 210 μL of the samples of peptides were taken and precipitated by the addition of 40 μL of 15% aqueous trichloroacetic acid. The samples were stored at 4° C. for 20 min and centrifuged. The supernatants were immediately frozen in dry-ice, and […], of each were analyzed on RP-HPLC and/or MALDI-MS.

[2] = system: ObR-positive cancer cells (brain and breast); type: cell-based
Description: The effect of the peptides of the invention on the proliferation of ObR-positive cancer cells (brain and breast) in the presence (IC50) or absence (EC50) of exogenous leptin protein (6 nM) is summarized in Table 1.

[3] = system: MCF-7 breast cancer cells (ObR-positive); type: cell-based, human
From the text: (§1) Immunol. Methods 94:57-63).

[4] = system: ObR-positive cancer cells (brain and breast); type: cell-based; conditions: presence of exogenous leptin (6 nM)
[5] = system: two brain tumor cell lines; test: leptin receptor antagonism in brain tumor cell lines; type: cell-based
[6] = mouse, in vivo, ip
[7] = system: LN229 (glioma) cells (ObR-positive); type: cell-based; conditions: 2 h
From the text: as §1

[8] = chronic and acute toxicity; type: in vivo, mice
Description: The peptide of amino acid sequence SEQ ID NO:4 was evaluated for chronic and acute toxicity in mice. Three female Black/6 mice received intraperitoneally either bolus 0.5 mg/kg or 2 mg/kg or 30 mg/kg peptide SEQ ID NO:4, or 0.5 mg/kg/day or 2 mg/kg/day peptide SEQ ID NO:4 over a 10 day period. Two days after termination of the experiments, the mice were weighed and sacrificed, and the livers, brains, spleens and kidneys were weighed.

[9] = organ toxicity testing after 14 days of treatment (Example 4); type: in vivo, mice and rats; conditions: any conditions
Description: (§2) Six weeks old Black/6 mice (mixed race) and F344 female rats were grown on regular lab chow and had access to food and water ad libidum. Treatment started at day 0, with four mice (2 males and 2 females) and 4 rats per group. The animals received the peptide of amino acid sequence SEQ ID NO:4 or physiological salt solution once daily. The mice and rats were dosed according to the following schedule: • Group 1: Mice, salt solution intraperitoneally; • Groups 2 and 3: Mice 0.1 mg/kg/day or 0.01 mg/kg/day peptide of amino acid sequence SEQ ID NO:4 intraperitoneally in 100 microliter salt solution; • Groups 4 and 5: Mice 1 mg/kg/day or 0.1 mg/kg/day peptide of amino acid sequence SEQ ID NO:4 subcutaneously (under the shoulder blade) in 100 microliter salt solution; • Groups 6 and 7: Mice 10 mg/kg/day or 1 mg/kg/day peptide of amino acid sequence SEQ ID NO:4 orally in 100 microliter salt solution; • Group 8: Rats, 10 microliter salt solution, intranasally; • Group 9: Rats. 0.1 mg/kg/day peptide of amino acid sequence SEQ ID NO:4 intranasally in 10 microliter salt solution.
After 14 days the animals were sacrificed and their liver, brain, kidneys and spleen were submitted for toxicity testing.

[10] = weight gain of growing mice; type: in vivo
Description: as §2, with “solution. […]” for “solution.”
The therapeutic utility of full ObR antagonists was studied further by the ability of peptide of amino acid sequence SEQ ID NO:4 to increase the appetite of normal, growing mice as measured by accelerated weight gain and increased food intake upon various modes of peptide administration. […]

[11] = 25% aqueous pooled mouse serum, 37° C., read-out: half-life in 25% serum
[12] = 100% pooled mouse serum, 37° C., read-out: half-life in 100% serum
[13] = mouse serum, read-out: half-life in mouse serum
[14] = ip bolus 0.5, 2 or 30 mg/kg, or 0.5 or 2 mg/kg/day for 10 days

## CCC[C@H](NC(=O)[C@H](CCC(=O)O)NC(=O)[C@@H](N)[C@H](C)O)C(=O)N[C@H](C(=O)N[C@@H](C)C(=O)N[C@@H](CC(C)C)C(=O)N[C@@H](CO)C(=O)N[C@@H](CCCNC(=N)N)C(=O)NCCCCCC(N)=O)C(C)C [SEQ ID NO:49, alloThr-Glu-Nva-Val-Ala-Leu-Ser-Arg-AcpNH2] (H-[aThr]E[Nva]VALSR[Ahx]-NH2)
[1]; [11]
  half-life: 40 min
[1]; [12]
  half-life: 10 min
[2]
  EC50: > 1000 nM

## CCC[C@H](NC(=O)[C@H](CCCNC(=N)N)NC(=O)[C@H](CO)NC(=O)[C@H](CC(C)C)NC(=O)[C@H](C)NC(=O)[C@H](CCC)NC(=O)[C@H](CCC)NC(=O)[C@H](CCC(=O)O)NC(=O)[C@@H](NC(C)=O)[C@@H](C)O)C(N)=O [SEQ ID NO:48, AcNH-Thr-Glu-Nva-Nva-Ala-Leu-Ser-Arg-NvaNH2] (Ac-TE[Nva][Nva]ALSR[Nva]-NH2)
[3]
  cell viability profile compared with the unprotected variant: no change
[1]; [13]
  half-life: 14 min

## CCC[C@H](NC(=O)[C@H](CCC(=O)O)NC(=O)[C@@H](CO)NC(C)=O)C(=O)N[C@H](C(=O)N[C@@H](C)C(=O)N[C@@H](CC(C)C)C(=O)N[C@@H](CO)C(=O)N(C)[C@@H](CCCNC(=N)N)C(=O)NCCC(N)=O)C(C)C [SEQ ID NO:6, (D)-Ser-Glu-Nva-Val-Ala-Leu-Ser-N-MeArg-bAlaNH2] (Ac-[dS]E[Nva]VALS[NMeR][βAla]-NH2; N-terminus assumed)
[2]
  EC50: > 1000 nM
  pharmacology: super antagonist
[4]
  IC100: <1 nM
[5]
  agonistic activity: no agonistic activity
  cell growth without stimulation with leptin protein: does not influence cell growth
[5]; two brain tumor cell lines in vitro
  IC100, antagonistic activity against the leptin receptor: 10 to 100 pM

## Alexa 680-labeled peptide of amino acid sequence SEQ ID NO:49: peptide of SEQ ID NO:49 labeled with the fluorescent dye Alexa 680 ([aThr]E[Nva]VALSR[Ahx]-NH2; not fully specified (N-terminus); printed as alloThr-Glu-Nva-Val-Ala-Leu-Ser-Arg-AcpNH2; also: Alexa 680 label, site not given here)
[6]
  migration into further tissues, blood-brain barrier penetration: migrated into the tail, limbs and the brain

## CCC[C@H](NC(=O)[C@@H](N)CCC(=O)O)C(=O)N[C@H](C(=O)N[C@@H](C)C(=O)N[C@@H](CC(C)C)C(=O)N[C@@H](CO)C(=O)N[C@@H](CCCNC(=N)N)C(=O)NCCCCCC(N)=O)C(C)C [SEQ ID NO:51, Glu-Nva-Val-Ala-Leu-Ser-Arg-AcpNH2] (H-E[Nva]VALSR[Ahx]-NH2; N-terminus assumed)
[2]
  EC50: > 500 nM
  pharmacology: weak full
[4]
  IC100: 100 nM

## CCC[C@H](NC(=O)[C@H](CCC(=O)O)NC(=O)[C@@H](N)[C@@H](C)O)C(=O)N[C@H](C(=O)N[C@@H](C)C(=O)N[C@@H](CC(C)C)C(=O)N[C@@H](CO)C(=O)N[C@@H](CCCNC(=N)N)C(=O)NCCCCCC(N)=O)C(C)C [SEQ ID NO:4, Thr-Glu-Nva-Val-Ala-Leu-Ser-Arg-AcpNH2] (H-TE[Nva]VALSR[Ahx]-NH2)
[3]; 2 h
  IC50: 2 to 3 nM
[7]
  IC50: 2 to 3 nM
[8]; female, Black/6, mouse, in vivo, ip, intraperitoneal bolus, read-out: highest studied dose found not toxic, acute
  NOAEL: 30 mg/kg
[8]; female, Black/6, mouse, in vivo, ip, intraperitoneal, 10 days, read-out: highest studied dose found not toxic, chronic
  NOAEL at 240 h: 2 mg/kg/day
[8]; [14]
  gross necropsy, treated versus non-treated: no alteration
  liver, brain, spleen and kidney weights, treated versus non-treated: identical
[1]; [11]
  half-life: 20 min
[1]; [12]
  half-life: 5 min
[9]
  toxic effects in liver, brain, kidneys and spleen: No obvious toxic effects
[10]; C57BL/6 mice
  necropsy of the major organs: no signs of toxicity
[2]
  EC50: > 1000 nM

## CCC[C@H](NC(=O)[C@H](CCCNC(=N)N)NC(=O)[C@H](CO)NC(=O)[C@H](CC(C)C)NC(=O)[C@H](C)NC(=O)[C@H](CCC)NC(=O)[C@H](CCC)NC(=O)[C@H](CCC(=O)O)NC(=O)[C@@H](N)[C@@H](C)O)C(N)=O [SEQ ID NO:47, Thr-Glu-Nva-Nva-Ala-Leu-Ser-Arg-NvaNH2] (H-TE[Nva][Nva]ALSR[Nva]-NH2)
[1]; [13]
  half-life: 8 min
[2]
  EC50: > 1000 nM

B1: leptin: neurohormone, native ObR ligand; human leptin purchased from R&D Systems (protein, listed as Homo sapiens)
chain: VPIQKVQDDTKTLIKTIVTRINDISHTQSVSAKQRVTGLDFIPGLHPILSLSKMDQTLAVYQQVLTSLPSQNVLQIANDLENLRDLLHLLAFSKSCSLPQTSGLQKPESLDGVLEASLYSTEVVALSRLQGSLQDILQQLDVSPEC
[10]; 0.1 mg/kg/day intraperitoneally, day 8
  reduction of normal weight gain compared to untreated mice: 5%
